Measurements published in the supplement of paper PMC13380429.

Legend:
U2OS [1] = assay: cell viability relative to DMSO; higher = less toxic; conditions: 72 h
Vero E6 [2] = assay: as above; conditions: 72 h
Calu-3 [3] = assay: as above; conditions: 72 h
HepG2 [4] = assay: as above; conditions: 72 h
Caco-2 [5] = assay: as above; conditions: 72 h
[6] = tested on: A549-ACE2 infected with SARS-CoV-2; assay: SARS-CoV-2 infection rate relative to DMSO; higher = more infection; conditions: 24 h
A549-ACE2 = assay: drug-induced phospholipidosis relative to tamoxifen; higher = more phospholipidosis
[7] = tested on: A549-ACE2 infected with SARS-CoV-2; assay: cell count relative to DMSO; higher = less toxic; conditions: 24 h
U2OS [8] = assay: drug sensitivity score (DSS) for viability; higher = more toxic; extreme values may be limits of the assay; conditions: 72 h
Vero E6 [9] = assay: as above; conditions: 72 h
Calu-3 [10] = assay: as above; conditions: 72 h
HepG2 [11] = assay: as above; conditions: 72 h
Caco-2 [12] = assay: as above; conditions: 72 h
[13] = tested on: A549-ACE2 infected with SARS-CoV-2; assay: morphology score (similarity to uninfected cells); higher = more like uninfected cells; conditions: 24 h
Vero E6 [14] = assay: relative viability EC50 (midpoint between 100% and the lowest measured viability); higher = less toxic; conditions: 72 h
Calu-3 [15] = assay: as above; conditions: 72 h
Caco-2 [16] = assay: as above; conditions: 72 h
U2OS [17] = assay: as above; conditions: 72 h
HepG2 [18] = assay: as above; conditions: 72 h

Nc1nc(N)c(N=O)c(OCC2CCCCC2)n1 [NU-6027]
Conditions	SARS-CoV-2 infection rate, [6] [%]	cell count, [7] [%]	cell viability, Caco-2 [5] [%]	cell viability, Calu-3 [3] [%]	cell viability, HepG2 [4] [%]	cell viability, U2OS [1] [%]	cell viability, Vero E6 [2] [%]	morphology score, [13]
1 nM	–	–	100	101	87.7	104	96	–
10 nM	–	–	97.5	117	92.7	101	105	–
100 nM	–	–	96.6	106	96.4	104	99.8	–
0.3 µM	104	100	–	–	–	–	–	-0.13
1000 nM	–	–	100	105	89.9	101	95	–
3 µM	68	103	–	–	–	–	–	0.59
10000 nM	–	–	46	81.4	58.4	70.7	89.7	–
10 µM	52	107	–	–	–	–	–	0.62
30 µM	41	100	–	–	–	–	–	0.46

drug-induced phospholipidosis [%], A549-ACE2
Conditions	0.3 µM	0.833333 µM	3.33333 µM	6.66667 µM	10 µM	30 µM
24 h	1.28	-0.02	2.45	3.35	2.35	28.5
48 h	2.37	-0.39	-0.5	-1.38	1.26	–
72 h	1.92	-1.07	-2.27	-1.09	-1.29	–

Conditions	drug sensitivity score	relative viability EC50 [µM]
Caco-2 [12]	2.9	–
Caco-2 [16]	–	3.17
Calu-3 [10]	0.3	–
Calu-3 [15]	–	> 10
HepG2 [11]	3.7	–
U2OS [8]	1.2	–
Vero E6 [9]	0	–
Vero E6 [14]	–	> 10

Clc1ccc(N/N=C(\c2ccccc2)c2ccccn2)nc1 [JIB04]
Conditions	SARS-CoV-2 infection rate, [6] [%]	cell count, [7] [%]	cell viability, Caco-2 [5] [%]	cell viability, Calu-3 [3] [%]	cell viability, HepG2 [4] [%]	cell viability, U2OS [1] [%]	cell viability, Vero E6 [2] [%]	morphology score, [13]
1 nM	–	–	89.4	101	92.7	102	91.7	–
10 nM	–	–	94.1	108	87.8	97.9	102	–
100 nM	–	–	33.7	102	19.8	95.6	89.4	–
0.3 µM	104	99	–	–	–	–	–	-0.14
1000 nM	–	–	11.2	14.7	6.2	34.3	53.7	–
3 µM	82	96	–	–	–	–	–	0.28
10000 nM	–	–	34.7	18.8	21.6	6.9	6.4	–
10 µM	36	88	–	–	–	–	–	0.37
30 µM	50	54	–	–	–	–	–	0.36

A549-ACE2
Conditions	drug-induced phospholipidosis [%]
0.3 µM, 24 h	4.18
0.3 µM, 48 h	6.34
0.3 µM, 72 h	8.31
0.833333 µM, 24 h	-0.88
3.33333 µM, 24 h	-2.31
6.66667 µM, 24 h	22.5
10 µM, 24 h	26.1
30 µM, 24 h	2.4

Conditions	drug sensitivity score	relative viability EC50
Caco-2 [12]	24.6	–
Caco-2 [16]	–	0.0502 µM
Calu-3 [10]	15.3	–
Calu-3 [15]	–	0.327 µM
HepG2 [11]	28.1	–
HepG2 [18]	–	32.7 nM
U2OS [8]	13.2	–
U2OS [17]	–	0.595 µM
Vero E6 [9]	10.7	–
Vero E6 [14]	–	0.943 µM

CCN(CC)CCOc1ccc2c(c1)C(=O)c1cc(OCCN(CC)CC)ccc1-2 [tilorone]
Conditions	SARS-CoV-2 infection rate, [6] [%]	cell count, [7] [%]	cell viability, Caco-2 [5] [%]	cell viability, Calu-3 [3] [%]	cell viability, HepG2 [4] [%]	cell viability, U2OS [1] [%]	cell viability, Vero E6 [2] [%]	morphology score, [13]
1 nM	–	–	102	103	98.4	103	106	–
10 nM	–	–	102	101	93.2	104	104	–
100 nM	–	–	97.1	95.7	91.3	100	97.5	–
0.1 µM	88	102	–	–	–	–	–	0.26
0.3 µM	84	106	–	–	–	–	–	0.37
1000 nM	–	–	95	96.6	96.8	95.9	100	–
1 µM	77	102	–	–	–	–	–	0.45
3 µM	46	108	–	–	–	–	–	0.5
10000 nM	–	–	78.4	78.8	15.8	98.9	35.2	–

drug-induced phospholipidosis [%], A549-ACE2
Conditions	0.3 µM	0.833333 µM	3.33333 µM	6.66667 µM	10 µM	30 µM
24 h	-3.79	-6.82	-21.7	-22.6	-23.9	-27.5
48 h	2.58	-4.68	-11.7	-11.1	-10	-8.85
72 h	3.61	-1.19	-2.58	0.944	-0.898	–

Conditions	drug sensitivity score	relative viability EC50
Caco-2 [12]	1.3	–
Caco-2 [16]	–	> 10 µM
Calu-3 [10]	1.2	–
Calu-3 [15]	–	> 10 µM
HepG2 [11]	5.1	–
HepG2 [18]	–	2870 nM
U2OS [8]	0	–
U2OS [17]	–	> 10 µM
Vero E6 [9]	3.5	–
Vero E6 [14]	–	3.19 µM

CCN(CC)CCOC(=O)C1(C2CCCCC2)CCCCC1 [dicycloverine]
Conditions	SARS-CoV-2 infection rate, [6] [%]	cell count, [7] [%]	cell viability, Caco-2 [5] [%]	cell viability, Calu-3 [3] [%]	cell viability, HepG2 [4] [%]	cell viability, U2OS [1] [%]	cell viability, Vero E6 [2] [%]	morphology score, [13]
1 nM	–	–	99.3	93.2	95.7	97	96.1	–
10 nM	–	–	95.6	104	97.6	99.3	94	–
100 nM	–	–	97.2	91.8	103	99.3	98	–
0.3 µM	94	97	–	–	–	–	–	0.02
1000 nM	–	–	98.1	91.8	98.7	108	92.6	–
3 µM	66	112	–	–	–	–	–	0.62
10000 nM	–	–	102	102	105	104	108	–
10 µM	46	114	–	–	–	–	–	0.78
30 µM	34	118	–	–	–	–	–	0.84

drug-induced phospholipidosis [%], A549-ACE2
Conditions	0.3 µM	0.833333 µM	3.33333 µM	6.66667 µM	10 µM	30 µM
24 h	4.66	1.82	4.06	5.19	6.77	68.6
48 h	6.16	1.46	3.34	3.8	4.6	45.9
72 h	5.16	-0.588	0.239	2.22	2.64	30.3

Conditions	drug sensitivity score	relative viability EC50
Caco-2 [12]	0	–
Caco-2 [16]	–	> 10 µM
Calu-3 [10]	0	–
Calu-3 [15]	–	> 10 µM
HepG2 [11]	0	–
HepG2 [18]	–	> 10000 nM
U2OS [8]	0	–
U2OS [17]	–	> 10 µM
Vero E6 [9]	0	–
Vero E6 [14]	–	> 10 µM
